From patent US9139577B2, “Sulfoximine substituted quinazolines for pharmaceutical compositions” (Boehringer Ingelheim International GmbH, priority 2013, dated 2015)

Biological target: MNK1 (Homo sapiens (Human), UniProt Q9BUB5)
Assay: MNK1 in vitro kinase assay (Assay 3), Z'-LYTE
Format: biochemical
Conditions: not given
Text: C. MNK1 In vitro Kinase Assay (Assay 3)
MNK1 Data can be obtained from the MNK1 Z′-LYTE® assay. The MNK1 Z′-LYTE® screening protocol and assay conditions are also described on www.invitrogen.com.
The assay is described as follows:
The Z′-LYTE® biochemical assay employs a fluorescence-based, coupled-enzyme format and is based on the differential sensitivity of phosphorylated and non-phosphorylated peptides to proteolytic cleavage. The peptide substrate is labeled with two fluorophores—one at each end—that make up a FRET pair.
In the primary reaction, the kinase transfers the gamma-phosphate of ATP to a single tyrosine, serine or threonine residue in a synthetic FRET-peptide. In the secondary reaction, a site-specific protease recognizes and cleaves non-phosphorylated FRET-peptides. Phosphorylation of FRET-peptides suppresses cleavage by the Development Reagent. Cleavage disrupts FRET between the donor (i.e., coumarin) and acceptor (i.e., fluorescein) fluorophores on the FRET-peptide, whereas uncleaved, phosphorylated FRET-peptides maintain FRET. A ratiometric method, which calculates the ratio (the Emission Ratio) of donor emission to acceptor emission after excitation of the donor fluorophore at 400 nm, is used to quantitate reaction progress, as shown in the equation below.
ASSAY SETUP: The inhibition of kinase activity of MNK1a was assessed using pre-activated GST-MNK1a. The 2×MKNK1 (MNK1) mixture is prepared in 50 mM HEPES pH 7.5, 0.01% BRIJ-35, 10 mM MgCl2, 4 mM MnCl2, 1 mM EGTA, 2 mM DTT.
The Test Compounds are screened in 1% DMSO (final) in the well.
All Peptide/Kinase Mixtures are diluted to a 2× working concentration in the MNK1 Kinase Buffer.
All ATP Solutions are diluted to a 4× working concentration in Kinase Buffer (50 mM HEPES pH 7.5, 0.01% BRIJ-35, 10 mM MgCl2, 1 mM EGTA).
Development Reagent Solution:
The Development Reagent is diluted in Development Buffer
1. 2.5 μL—4× Test Compound
2. 5 μL—2× Peptide/Kinase Mixture
5. 60-minute Kinase Reaction incubation at room temperature
6. 5 μl—Development Reagent Solution
8. 60-minute Development Reaction incubation at room temperature
9. Read on fluorescence plate reader and analyze the data
The following equations are used for each set of data points: […]
Correction for Background Fluorescence: FlSample-FlTCFl Ctl
% Phosphorylation (% Phos): 1−((Emission Ratio×F100%)−C100%)/((C0%−C100%)+[Emission Ratio×(F100%−F0%)])*100%
% Inhibition: 1−(% PhosSample/% Phos0% Inhibition Ctl)*100
Fl=Fluorescence Intensity
C100%=Average Coumarin emission signal of the 100% Phos. Control
C0%=Average Coumarin emission signal of the 0% Phos. Control
F100%=Average Fluorescein emission signal of the 100% Phos. Control
F0%=Average Fluorescein emission signal of the 0% Phos. Control
SelectScreen® Kinase Profiling Service uses XLfit from IDBS.

MNK1, sequence (Q9BUB5 other isoform, or with tags, fused parts or gaps): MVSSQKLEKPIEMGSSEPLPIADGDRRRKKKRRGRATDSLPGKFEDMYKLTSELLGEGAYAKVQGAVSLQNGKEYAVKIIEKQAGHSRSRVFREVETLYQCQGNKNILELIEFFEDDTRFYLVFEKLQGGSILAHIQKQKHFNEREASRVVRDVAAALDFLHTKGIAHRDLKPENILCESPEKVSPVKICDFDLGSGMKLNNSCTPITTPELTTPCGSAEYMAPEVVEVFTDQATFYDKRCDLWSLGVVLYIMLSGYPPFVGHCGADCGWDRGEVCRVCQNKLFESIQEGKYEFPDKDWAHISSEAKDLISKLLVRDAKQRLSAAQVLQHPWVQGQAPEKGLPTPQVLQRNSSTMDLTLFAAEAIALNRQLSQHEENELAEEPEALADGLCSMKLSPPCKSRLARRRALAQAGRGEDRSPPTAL

SMILES | IC50 [nM]
Cc1cc(N=S2(=O)CCCC2)cc2ncnc(Nc3ccc(F)cc3OC(C)C(C)(C)O)c12 (stereo not drawn) [Example 2.001] | 228
Cc1cc(N=S(C)(C)=O)cc2ncnc(Nc3ccc(F)cc3OC(CF)CF)c12 [Example 3.001] | 60
C[C@H](NC(=O)[C@@H](C)Oc1cc(F)ccc1Nc1ncnc2cc(N=S3(=O)CCC3)cc(F)c12)C(F)(F)F [Example 4.136] | 29
Cc1cc(N=S(C)(C)=O)cc2ncnc(Nc3ccc(F)cc3O[C@H](C)C(=O)NC(C(F)(F)F)C(F)(F)F)c12 [Example 3.054] | 51
Cc1cc(N=S(C)(C)=O)cc2ncnc(Nc3ccc(F)cc3OCCC(F)(F)F)c12 [Example 3.031] | 75
Cc1cc(N=S(C)(C)=O)cc2ncnc(Nc3ccc(F)cc3OCc3ccon3)c12 [Example 3.039] | 77
Cc1cc(N=S2(=O)CCCC2)cc2ncnc(Nc3ccc(F)cc3OC(CF)CF)c12 [Example 1.011] | 34

The next lines start with the values.

IC50 [nM] | SMILES
66 | Cc1cc(N=S(C)(C)=O)cc2ncnc(Nc3ccc(F)cc3O[C@@H](C)CNC(=O)C(F)(F)F)c12 [Example 5.004]
36 | Cc1cc(N=S(C)(C)=O)cc2ncnc(Nc3ccc(Cl)cc3O[C@H](C)C(=O)N[C@@H](C)C(F)(F)F)c12 [Example 4.088]

Same assay, conditions: compound concentration of 1 μM, read-out: MNK1 % INH

SMILES | inhibition at 1 µM [%]
Cc1cc(N=S(C)(C)=O)cc2ncnc(Nc3ccc(F)cc3OCC3CCCCO3)c12 (stereo not drawn) [Example 3.006] | 70
Cc1cc([C@@H](C)Oc2cc(F)ccc2Nc2ncnc3cc(N=S4(=O)CCCC4)cc(Cl)c23)on1 [Example 2.014] | 99
COCC(C)Oc1cc(F)ccc1Nc1ncnc2cc(N=S(C)(C)=O)cc(C)c12 (stereo not drawn) [Example 3.050] | 87
C[C@H](NC(=O)[C@@H](C)Oc1cc(F)ccc1Nc1ncnc2cc(N=S3(=O)CCC3)cc(F)c12)C(F)(F)F [Example 4.136] | 93
Cc1cc(COc2cc(F)ccc2Nc2ncnc3cc(N=S(C)(C)=O)cc(C)c23)no1 [Example 3.009] | 95
Cc1cc(N=S(C)(C)=O)cc2ncnc(Nc3ccc(F)cc3O[C@H](C)C(=O)NC(C(F)(F)F)C(F)(F)F)c12 [Example 3.054] | 58
Cc1cc(N=S(C)(C)=O)cc2ncnc(Nc3ccc(F)cc3OCC(=O)N(C)C)c12 [Example 3.026] | 53
Cc1cc(N=S(C)(C)=O)cc2ncnc(Nc3ccc(F)cc3OC(C)C(C)(C)O)c12 (stereo not drawn) [Example 2.003] | 76
CCOC(=O)[C@H](C)Oc1cc(F)ccc1Nc1ncnc2cc(N=S(C)(C)=O)cc(C)c12 [Example 3.032] | 26

Continued, values first:

inhibition at 1 µM [%] | SMILES
92 | COCC(C)NC(=O)[C@@H](C)Oc1cc(F)ccc1Nc1ncnc2cc(N=S(C)(C)=O)cc(C)c12 (stereo partly drawn) [Example 4.021]
95 | CC(=O)N1CCS(=O)(=Nc2cc(C)c3c(Nc4ccc(F)cc4O[C@H](C)c4cc(C)no4)ncnc3c2)CC1 [Example 5.005]
99 | Cc1cc(N=S(C)(C)=O)cc2ncnc(Nc3ccc(Cl)cc3O[C@H](C)C(=O)N[C@@H](C)C(F)(F)F)c12 [Example 4.088]
102 | Cc1cc(N=S2(=O)CCCC2)cc2ncnc(Nc3ccc(F)cc3O[C@H](C)C(=O)N[C@H]3CCOC3)c12 [Example 4.057]
74 | CC(=O)NC[C@@H](C)Oc1cc(F)ccc1Nc1ncnc2cc(N=S(C)(C)=O)cc(C)c12 [Example 5.009]
99 | Cc1cc(N=S(C)(C)=O)cc2ncnc(Nc3ccc(F)cc3O[C@H](C)C(=O)N[C@H]3CCOC3)c12 [Example 4.045]

Biological target: MNK2a (Homo sapiens (Human), UniProt Q9HBH9)
Sequence (Q9HBH9 whole entry): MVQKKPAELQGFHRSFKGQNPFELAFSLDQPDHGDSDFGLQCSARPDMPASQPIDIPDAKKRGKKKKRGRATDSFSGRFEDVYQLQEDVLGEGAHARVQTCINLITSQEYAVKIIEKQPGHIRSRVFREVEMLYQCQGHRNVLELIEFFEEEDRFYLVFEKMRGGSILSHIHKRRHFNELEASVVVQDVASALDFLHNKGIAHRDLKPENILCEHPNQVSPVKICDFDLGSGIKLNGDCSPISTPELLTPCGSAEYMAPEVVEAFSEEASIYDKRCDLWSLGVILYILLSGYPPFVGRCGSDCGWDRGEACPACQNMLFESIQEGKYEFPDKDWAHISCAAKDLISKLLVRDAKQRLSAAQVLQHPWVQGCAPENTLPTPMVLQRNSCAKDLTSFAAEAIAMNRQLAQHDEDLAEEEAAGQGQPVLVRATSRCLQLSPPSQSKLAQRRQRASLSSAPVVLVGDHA
Assay: MNK2a in vitro kinase assay (Assay 2), ADP-Glo
Format: biochemical
Conditions: read-out: MNK2 IC50

SMILES | IC50 [nM]
Cc1cc(N=S(C)(C)=O)cc2ncnc(Nc3ccc(F)cc3OCC3CCCCO3)c12 (stereo not drawn) [Example 3.006] | 1
Cc1cc([C@@H](C)Oc2cc(F)ccc2Nc2ncnc3cc(N=S4(=O)CCCC4)cc(Cl)c23)on1 [Example 2.014] | 2
COCC(C)Oc1cc(F)ccc1Nc1ncnc2cc(N=S(C)(C)=O)cc(C)c12 (stereo not drawn) [Example 3.050] | 32
Cc1cc(N=S2(=O)CCCC2)cc2ncnc(Nc3ccc(F)cc3OC(C)C(C)(C)O)c12 (stereo not drawn) [Example 2.001] | 5
Cc1cc(N=S(C)(C)=O)cc2ncnc(Nc3ccc(F)cc3OC(CF)CF)c12 [Example 3.001] | 2
C[C@H](NC(=O)[C@@H](C)Oc1cc(F)ccc1Nc1ncnc2cc(N=S3(=O)CCC3)cc(F)c12)C(F)(F)F [Example 4.136] | 1
Cc1cc(COc2cc(F)ccc2Nc2ncnc3cc(N=S(C)(C)=O)cc(C)c23)no1 [Example 3.009] | 7
Cc1cc(N=S(C)(C)=O)cc2ncnc(Nc3ccc(F)cc3O[C@H](C)C(=O)NC(C(F)(F)F)C(F)(F)F)c12 [Example 3.054] | 1
Cc1cc(N=S(C)(C)=O)cc2ncnc(Nc3ccc(F)cc3OCC(=O)N(C)C)c12 [Example 3.026] | 4
Cc1cc(N=S(C)(C)=O)cc2ncnc(Nc3ccc(F)cc3OC(C)C(C)(C)O)c12 (stereo not drawn) [Example 2.003] | 13
Cc1cc(N=S(C)(C)=O)cc2ncnc(Nc3ccc(F)cc3OCCC(F)(F)F)c12 [Example 3.031] | 5
CCOC(=O)[C@H](C)Oc1cc(F)ccc1Nc1ncnc2cc(N=S(C)(C)=O)cc(C)c12 [Example 3.032] | 16
Cc1cc(N=S(C)(C)=O)cc2ncnc(Nc3ccc(F)cc3OCc3ccon3)c12 [Example 3.039] | 1
Cc1cc(N=S2(=O)CCCC2)cc2ncnc(Nc3ccc(F)cc3OC(CF)CF)c12 [Example 1.011] | 2

More lines, now with the values ahead:

IC50 [nM] | SMILES
12 | COCC(C)NC(=O)[C@@H](C)Oc1cc(F)ccc1Nc1ncnc2cc(N=S(C)(C)=O)cc(C)c12 (stereo partly drawn) [Example 4.021]
2 | CC(=O)N1CCS(=O)(=Nc2cc(C)c3c(Nc4ccc(F)cc4O[C@H](C)c4cc(C)no4)ncnc3c2)CC1 [Example 5.005]
2 | Cc1cc(N=S(C)(C)=O)cc2ncnc(Nc3ccc(F)cc3O[C@@H](C)CNC(=O)C(F)(F)F)c12 [Example 5.004]
2 | Cc1cc(N=S(C)(C)=O)cc2ncnc(Nc3ccc(Cl)cc3O[C@H](C)C(=O)N[C@@H](C)C(F)(F)F)c12 [Example 4.088]
2 | Cc1cc(N=S2(=O)CCCC2)cc2ncnc(Nc3ccc(F)cc3O[C@H](C)C(=O)N[C@H]3CCOC3)c12 [Example 4.057]
35 | CC(=O)NC[C@@H](C)Oc1cc(F)ccc1Nc1ncnc2cc(N=S(C)(C)=O)cc(C)c12 [Example 5.009]
3 | Cc1cc(N=S(C)(C)=O)cc2ncnc(Nc3ccc(F)cc3O[C@H](C)C(=O)N[C@H]3CCOC3)c12 [Example 4.045]
